Experiment: 0.5 mg/mL solubility assessment (filtered/unfiltered)
Type: physicochemical
Details: 0.5 mg/mL experiment; for pH: listed as HBr

SMILES: COC(=O)c1ccc2c(c1)NC(=O)/C2=C(\Nc1ccc(N(C)C(=O)CN2CCN(C)CC2)cc1)c1ccccc1 [Nintedanib HBr]
- concentration for filtered sample compared to unfiltered (listed as HBr salt): 94%
- pH (Filtered): 5.31
- pH (Unfiltered): 5.12
